Reference: patent US6720353B2, “Plant proanthocyanidin extract effective at inhibiting adherence of bacteria with p-type fimbriae to surfaces” (priority 1997, dated 2004)

Tests used:
type 1 E. coli [1] = conditions: cited from earlier work
P-type E. coli [2] = experiment: Hemagglutination assay: inhibition of P-type E. coli-induced agglutination of A+ human red blood cells (HRBC); format: cell-based; conditions: for Inhibition of agglutination, HRBC: P-type E. coli, A+ human red blood cells, neutral pH
Experimental: (§1) Sixty E. coli strains were isolated from the urine of human and animal (dog and cat) patients suffering from urinary tract infections. After determining the fimbrial type of each strain, 5 strains specific for P-type fimbriae, and 5 strains specific for type 1 fimbriae were selected for use in bioactivity testing. Bacterial strains were subcultured in tryptose broth at 37° C. for 16 h. P-type strains were transferred to colonization factor agar (CFA) plates and grown overnight at 37° C. to enhance production of P-type fimbriae. Strains were harvested by centrifugation, washed once and suspended in phosphate-buffered saline solution (PBS) at pH 7.0 at a concentration of 5×10^8 bacteria/mL. […] Therefore, mixtures of P-type strains were used to test for P-type bioactivity, and mixtures of type 1 strains were used to test for type 1 bioactivity. Strains were kept frozen at −70° C. in tryptose broth (30% glycerol) for long-term storage.

P-type E. coli [3] = experiment: Latex bead agglutination test (beads coated with synthetic P-type receptor analog Galα1→4Galβ); format: cell-based; conditions: for Inhibition of agglutination, P-Receptor: P-type E. coli, latex beads coated with P-type receptor analog
Experimental: as §1
The fractions were also tested in the P-type receptor bioassay of de Man et al., 1987, J. Clin. Microbiol. 25(2):401-406. Dried Fractions 1-8 were dissolved in PBS, neutralized, and mixed with P-type bacterial suspensions (30 μl fraction to 10 μl of bacterial suspension) on a polystyrene 24-well plate and incubated for 10 min on a rotary shaker. Latex beads coated with a synthetic P-type receptor analog (Galα1→4Galβ) (BACH test, Kabi Vitrum, Stockholm, Sweden) suspended in water at a concentration of 5×10^9 beads/mL were added (10 μl) to each well and incubation continued for 20 min on the rotary shaker. […] (4) uncoated beads and test fractions, and (5) bacteria, coated beads and epicatechin trimer. The control to show agglutination consisted of bacteria and coated beads.

type 1 E. coli [4] = experiment: Hemagglutination assay with guinea pig red blood cells (GPRBC); format: cell-based
Experimental: as §1
The inhibition of adherence of type 1 E. coli by the various fractions was tested according to hemagglutination assay for P-type bacteria, except guinea pig red blood cells (GPRBC) were used in place of HRBC. The results are shown in Table 4 under the column GPRBC using the same scoring system as described above.

type 1-fimbriated E coli = experiment: Yeast (Saccharomyces cerevisiae) agglutination assay; format: cell-based; conditions: for Inhibition of agglutination, Yeast Cells: type 1 E. coli, S. cerevisiae
Experimental: as §1
The fractions were also tested in the bioassay of Eschdat et al., 1978, Biochem. Biophys. Res. Commmun. 85:1551-1559, using yeast cells. Yeast cultures of Saccharomyces cerevisiae were grown in Sabouraud dextrose broth and incubated for 24 hr at 38° C. Yeast cells were transferred to Sabouraud dextrose agar plates and grown under the same conditions. Cells were harvested, washed and suspended in PBS at a concentration of 4×10^8 cells/mL. Ten μl of type 1-fimbriated E coli were mixed with neutralized test fractions (30 μl) in a 24-well polystyrene plate and incubated for 10 min on a rotary shaker. Yeast cell suspension (10 μl) was added to each well and incubated for 5 min. […] The control to show agglutination consisted of bacteria and yeast. Tie results are shown in Table 4 under the column “Yeast Cells” using the same scoring system as described above.

O=C(CO)[C@@H](O)[C@H](O)[C@H](O)CO [fructose]
Inhibition of type 1 E. coli to uroepithelial cells (type 1 E. coli [1]): responsible for the inhibition

Epicatechin Trimer
Inhibition of agglutination, HRBC (P-type E. coli [2]): +
Agglutination in control well (P-type E. coli [2]; bacteria, HRBC and standard): no agglutination or complete inhibition of agglutination
Inhibition of agglutination, P-Receptor (P-type E. coli [3]): +
Agglutination in control well (P-type E. coli [3]; bacteria, coated beads and standard): no agglutination or complete inhibition of agglutination
Inhibition of agglutination, GPRBC (type 1 E. coli [4]): −
Inhibition of agglutination, Yeast Cells (type 1-fimbriated E coli): −

O=C[C@@H](O)[C@@H](O)[C@H](O)[C@H](O)CO [1% D-Mannose, D-Mannose]
Inhibition of agglutination, HRBC (P-type E. coli [2]): −
Inhibition of agglutination, P-Receptor (P-type E. coli [3]): −
Inhibition of agglutination, GPRBC (type 1 E. coli [4]): +
Agglutination in control well (type 1-fimbriated E coli; bacteria, yeast and 1% D-mannose): no agglutination or complete inhibition of agglutination
Inhibition of agglutination, Yeast Cells (type 1-fimbriated E coli): +
